These molecules were tested against USP1 (construct USP1 (I-785, GG670, 671AA)/UAF1 (I-677)-Flag) (Homo sapiens (Human), UniProt O94782, G670A/G671A) (assay: Ubiquitin-Rhodamine 110 assay for USP1 activity). Details: USP1/UAF1 25 pM, Ub-Rh110 25 nM, 30 min preincubation.
Format: biochemical
How it was run: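 Ub-Rh110 (25 nM, ≪Km) cleavage read at ex 485/em 535 in Tris pH 8.0, CaCl2, GSH, Prionex, Triton X-100. The screen used 10 µM compound, 100 pM USP1/UAF1 and 45 min at RT.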

USP1 (construct USP1 (I-785, GG670, 671AA)/UAF1 (I-677)-Flag), sequence (O94782 whole entry G670A/G671A): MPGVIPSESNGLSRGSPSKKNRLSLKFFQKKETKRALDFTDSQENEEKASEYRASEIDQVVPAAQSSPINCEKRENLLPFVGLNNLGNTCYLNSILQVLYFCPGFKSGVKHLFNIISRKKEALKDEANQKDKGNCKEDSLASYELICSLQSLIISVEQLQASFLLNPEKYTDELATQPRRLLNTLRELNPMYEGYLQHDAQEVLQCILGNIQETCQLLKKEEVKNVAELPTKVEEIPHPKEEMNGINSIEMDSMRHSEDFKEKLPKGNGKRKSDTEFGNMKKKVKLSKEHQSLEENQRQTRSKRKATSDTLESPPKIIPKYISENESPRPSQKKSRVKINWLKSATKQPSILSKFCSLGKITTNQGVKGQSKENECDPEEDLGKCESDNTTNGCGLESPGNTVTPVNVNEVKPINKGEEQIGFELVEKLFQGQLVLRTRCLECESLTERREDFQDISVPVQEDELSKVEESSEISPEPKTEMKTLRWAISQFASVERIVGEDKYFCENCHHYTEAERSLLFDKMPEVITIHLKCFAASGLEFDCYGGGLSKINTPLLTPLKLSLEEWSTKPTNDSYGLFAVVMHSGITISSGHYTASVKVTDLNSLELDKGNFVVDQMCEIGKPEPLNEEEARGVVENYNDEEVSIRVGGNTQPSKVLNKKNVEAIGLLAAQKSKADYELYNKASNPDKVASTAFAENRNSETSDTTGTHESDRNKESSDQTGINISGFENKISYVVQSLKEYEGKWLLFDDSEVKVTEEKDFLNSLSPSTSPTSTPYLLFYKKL
USP1 (construct USP1 (I-785, GG670, 671AA)/UAF1 (I-677)-Flag), sequence (Q8TAF3 whole entry partner): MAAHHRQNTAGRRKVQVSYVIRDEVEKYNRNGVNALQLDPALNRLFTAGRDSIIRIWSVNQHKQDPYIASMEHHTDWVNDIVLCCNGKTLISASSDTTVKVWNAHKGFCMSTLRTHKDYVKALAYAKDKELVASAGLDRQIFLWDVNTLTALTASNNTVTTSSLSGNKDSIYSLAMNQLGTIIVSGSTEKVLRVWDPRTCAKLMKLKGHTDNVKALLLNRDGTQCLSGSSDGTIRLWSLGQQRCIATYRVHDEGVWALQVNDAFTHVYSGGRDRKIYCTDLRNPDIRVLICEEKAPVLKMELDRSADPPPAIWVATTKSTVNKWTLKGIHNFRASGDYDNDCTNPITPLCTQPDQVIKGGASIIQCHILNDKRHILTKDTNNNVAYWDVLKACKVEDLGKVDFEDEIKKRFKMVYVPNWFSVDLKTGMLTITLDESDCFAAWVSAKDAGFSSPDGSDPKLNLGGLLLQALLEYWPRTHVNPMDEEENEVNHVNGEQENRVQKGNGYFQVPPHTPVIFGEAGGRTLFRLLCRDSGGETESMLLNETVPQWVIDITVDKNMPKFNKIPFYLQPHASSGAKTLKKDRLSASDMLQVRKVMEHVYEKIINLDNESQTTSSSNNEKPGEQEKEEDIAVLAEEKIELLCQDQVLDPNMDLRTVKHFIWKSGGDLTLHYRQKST

With CN1CCN(c2ncccc2-c2ncc3[nH]c(=O)n(Cc4ccc(-c5nc(C(F)(F)F)cn5C)cc4)c3n2)CC1 [Compound I-328, 9-(4-(1-methyl-4-(trifluoromethyl)-1H-imidazol-2-yl)benzyl)-2-(2-(4-methylpiperazin-1-yl)pyridin-3-yl)-7,9-dihydro-8H-purin-8-one] as the molecule, how does the IC50 read?
The IC50 was 200 to 2000 nM.

For Cn1cc(C(F)(F)F)nc1-c1ccc(Cn2c(=O)[nH]c3cnc(-c4cccnc4N4CCC(C(F)(F)F)CC4)nc32)cc1 [Compound I-329, 9-(4-(1-methyl-4-(trifluoromethyl)-1H-imidazol-2-yl)benzyl)-2-(2-(4-(trifluoromethyl)piperidin-1-yl)pyridin-3-yl)-7,9-dihydro-8H-purin-8-one], which IC50 is on record?
The IC50 was less than 50 nM.

CC(C)N(C)c1ncccc1-c1ncc2[nH]c(=O)n(Cc3ccc(-c4nc(C(F)(F)F)cn4C)cc3)c2n1 [Compound I-330, 2-(2-(isopropyl(methyl)amino)pyridin-3-yl)-9-(4-(1-methyl-4-(trifluoromethyl)-1H-imidazol-2-yl)benzyl)-7,9-dihydro-8H-purin-8-one] was tested. Which IC50 did it give?
The IC50 was 50 to 200 nM.

How did the IC50 turn out when CCN(C)c1ncccc1-c1ncc2[nH]c(=O)n(Cc3ccc(-c4nc(C(F)(F)F)cn4C)cc3)c2n1 [Compound I-331, 2-(2-(ethyl(methyl)amino)pyridin-3-yl)-9-(4-(1-methyl-4-(trifluoromethyl)-1H-imidazol-2-yl)benzyl)-7,9-dihydro-8H-purin-8-one] was run?
The IC50 was less than 50 nM.

Which IC50 does the source give for CN(CC(F)(F)F)c1ncccc1-c1ncc2[nH]c(=O)n(Cc3ccc(-c4nc(C(F)(F)F)cn4C)cc3)c2n1 [Compound I-332, 2-(2-(methyl(2,2,2-trifluoroethyl)amino)pyridin-3-yl)-9-(4-(1-methyl-4-(trifluoromethyl)-1H-imidazol-2-yl)benzyl)-7,9-dihydro-8H-purin-8-one] here?
The IC50 was less than 50 nM.

How did the IC50 turn out when Cn1cc(C(F)(F)F)nc1-c1ccc(Cn2c(=O)[nH]c3cnc(-c4cccnc4N4CCOCC4)nc32)cc1 [Compound I-333, 9-(4-(1-methyl-4-(trifluoromethyl)-1H-imidazol-2-yl)benzyl)-2-(2-morpholinopyridin-3-yl)-7,9-dihydro-8H-purin-8-one] was run?
The IC50 was 50 to 200 nM.

Cn1cc(C(F)(F)F)nc1-c1ccc(Cn2c(=O)[nH]c3cnc(-c4cccnc4N4CC(F)C4)nc32)cc1 [Compound I-334, 2-(2-(3-fluoroazetidin-1-yl)pyridin-3-yl)-9-(4-(1-methyl-4-(trifluoromethyl)-1H-imidazol-2-yl)benzyl)-7,9-dihydro-8H-purin-8-one] was tested. Which IC50 did it give?
The IC50 was less than 50 nM.

Cn1cc(C(F)(F)F)nc1-c1ccc(Cn2c(=O)[nH]c3cnc(-c4cccnc4N4CCC4)nc32)cc1 [Compound I-335, 2-(2-(azetidin-1-yl)pyridin-3-yl)-9-(4-(1-methyl-4-(trifluoromethyl)-1H-imidazol-2-yl)benzyl)-7,9-dihydro-8H-purin-8-one] was tested. Which IC50 did it give?
The IC50 was 50 to 200 nM.

Which IC50 does the source give for Cn1cc(C(F)(F)F)nc1-c1ccc(Cn2c(=O)[nH]c3cnc(-c4cccnc4N4CC(F)(F)C4)nc32)cc1 [Compound I-336, 2-(2-(3,3-difluoroazetidin-1-yl)pyridin-3-yl)-9-(4-(1-methyl-4-(trifluoromethyl)-1H-imidazol-2-yl)benzyl)-7,9-dihydro-8H-purin-8-one] here?
The IC50 was less than 50 nM.

For Cn1cc(C(F)(F)F)nc1-c1ccc(Cn2c(=O)[nH]c3cnc(-c4cccnc4N4CC(C(F)(F)F)C4)nc32)cc1 [Compound I-337, 9-(4-(1-methyl-4-(trifluoromethyl)-1H-imidazol-2-yl)benzyl)-2-(2-(3-(trifluoromethyl)azetidin-1-yl)pyridin-3-yl)-7,9-dihydro-8H-purin-8-one], which IC50 is on record?
Its IC50 is less than 50 nM.

CC(C)c1ccccc1-c1ncc2[nH]c(=O)n(Cc3ccc(-n4cc(C(C)(C)N)nn4)cc3)c2n1 [Compound I-338, 9-(4-(4-(2-aminopropan-2-yl)-1H-1,2,3-triazol-1-yl)benzyl)-2-(2-isopropylphenyl)-7,9-dihydro-8H-purin-8-one] was tested. Which IC50 did it give?
Its IC50 is greater than 2000 nM.

With CC(C)c1ccccc1-c1ncc2[nH]c(=O)n(Cc3ccc(-n4cc(CN(C)C)nn4)cc3)c2n1 [Compound I-339, 9-(4-(4-((dimethylamino)methyl)-1H-1,2,3-triazol-1-yl)benzyl)-2-(2-isopropylphenyl)-7,9-dihydro-8H-purin-8-one] as the molecule, how does the IC50 read?
The IC50 was greater than 2000 nM.

Which IC50 does the source give for CC(C)c1ccccc1-c1ncc2[nH]c(=O)n(Cc3ccc(-n4cc(-c5ccccc5)nn4)cc3)c2n1 [Compound I-340, 2-(2-isopropylphenyl)-9-(4-(4-phenyl-1H-1,2,3-triazol-1-yl)benzyl)-7,9-dihydro-8H-purin-8-one] here?
The IC50 was 200 to 2000 nM.

Which IC50 does the source give for COc1ccc(-c2cn(-c3ccc(Cn4c(=O)[nH]c5cnc(-c6ccccc6C(C)C)nc54)cc3)nn2)cc1 [Compound I-341, 2-(2-isopropylphenyl)-9-(4-(4-(4-methoxyphenyl)-1H-1,2,3-triazol-1-yl)benzyl)-7,9-dihydro-8H-purin-8-one] here?
The IC50 was 200 to 2000 nM.

CC(C)c1ccccc1-c1ncc2[nH]c(=O)n(Cc3ccc(-n4cc(CCO)nn4)cc3)c2n1 [Compound I-342, 9-(4-(4-(2-hydroxyethyl)-1H-1,2,3-triazol-1-yl)benzyl)-2-(2-isopropylphenyl)-7,9-dihydro-8H-purin-8-one] was tested. Which IC50 did it give?
Its IC50 is 200 to 2000 nM.

Which IC50 does the source give for CC(C)c1ccccc1-c1ncc2[nH]c(=O)n(Cc3ccc(-n4cc(C5CC5)nn4)cc3)c2n1 [Compound I-343, 9-(4-(4-cyclopropyl-1H-1,2,3-triazol-1-yl)benzyl)-2-(2-isopropylphenyl)-7,9-dihydro-8H-purin-8-one] here?
Its IC50 is 50 to 200 nM.

With COCc1cn(-c2ccc(Cn3c(=O)[nH]c4cnc(-c5ccccc5C(C)C)nc43)cc2)nn1 [Compound I-344, 2-(2-isopropylphenyl)-9-(4-(4-(methoxymethyl)-1H-1,2,3-triazol-1-yl)benzyl)-7,9-dihydro-8H-purin-8-one] as the molecule, how does the IC50 read?
The IC50 was 200 to 2000 nM.

With CC(C)c1ccccc1-c1ncc2[nH]c(=O)n(Cc3ccc(-n4cc(C(C)(C)O)nn4)cc3)c2n1 [Compound I-345, 9-(4-(4-(2-hydroxypropan-2-yl)-1H-1,2,3-triazol-1-yl)benzyl)-2-(2-isopropylphenyl)-7,9-dihydro-8H-purin-8-one] as the molecule, how does the IC50 read?
Its IC50 is 200 to 2000 nM.

With CCN(CC)Cc1cn(-c2ccc(Cn3c(=O)[nH]c4cnc(-c5ccccc5C(C)C)nc43)cc2)nn1 [Compound I-346, 9-(4-(4-((diethylamino)methyl)-1H-1,2,3-triazol-1-yl)benzyl)-2-(2-isopropylphenyl)-7,9-dihydro-8H-purin-8-one] as the molecule, how does the IC50 read?
The IC50 was greater than 2000 nM.

With CC(C)c1ccccc1-c1ncc2[nH]c(=O)n(Cc3ccc(-n4cc([C@@H](C)O)nn4)cc3)c2n1 [Compound I-347, (R)-9-(4-(4-(1-hydroxyethyl)-1H-1,2,3-triazol-1-yl)benzyl)-2-(2-isopropylphenyl)-7,9-dihydro-8H-purin-8-one] as the molecule, how does the IC50 read?
Its IC50 is greater than 2000 nM.

For CCC(N)(CC)c1cn(-c2ccc(Cn3c(=O)[nH]c4cnc(-c5ccccc5C(C)C)nc43)cc2)nn1 [Compound I-348, 9-(4-(4-(3-aminopentan-3-yl)-1H-1,2,3-triazol-1-yl)benzyl)-2-(2-isopropylphenyl)-7,9-dihydro-8H-purin-8-one], which IC50 is on record?
Its IC50 is greater than 2000 nM.

For CC(C)c1ccccc1-c1ncc2[nH]c(=O)n(Cc3ccc(-n4cc(-c5ccccn5)nn4)cc3)c2n1 [Compound I-349, 2-(2-isopropylphenyl)-9-(4-(4-(pyridin-2-yl)-1H-1,2,3-triazol-1-yl)benzyl)-7,9-dihydro-8H-purin-8-one], which IC50 is on record?
Its IC50 is 200 to 2000 nM.

CC(C)c1ccccc1-c1ncc2[nH]c(=O)n(Cc3ccc(-n4cc(CS(C)(=O)=O)nn4)cc3)c2n1 [Compound I-350, 2-(2-isopropylphenyl)-9-(4-(4-((methylsulfonyl)methyl)-1H-1,2,3-triazol-1-yl)benzyl)-7,9-dihydro-8H-purin-8-one] was tested. Which IC50 did it give?
The IC50 was greater than 2000 nM.

For CNC(=O)c1ccc(Cn2c(=O)[nH]c3cnc(-c4ccccc4C(C)C)nc32)cc1 [Compound I-351, 4-((2-(2-isopropylphenyl)-8-oxo-7,8-dihydro-9H-purin-9-yl)methyl)-N-methylbenzamide], which IC50 is on record?
Its IC50 is 50 to 200 nM.

With COCCNC(=O)c1ccc(Cn2c(=O)[nH]c3cnc(-c4ccccc4C(C)C)nc32)cc1 [Compound I-352, 4-((2-(2-isopropylphenyl)-8-oxo-7,8-dihydro-9H-purin-9-yl)methyl)-N-(2-methoxyethyl)benzamide] as the molecule, how does the IC50 read?
The IC50 was 200 to 2000 nM.

CC(C)c1ccccc1-c1ncc2[nH]c(=O)n(Cc3ccc(C(=O)NC4CC4)cc3)c2n1 [Compound I-353, N-cyclopropyl-4-((2-(2-isopropylphenyl)-8-oxo-7,8-dihydro-9H-purin-9-yl)methyl)benzamide] was tested. Which IC50 did it give?
Its IC50 is 50 to 200 nM.

For CC(C)c1ccccc1-c1ncc2[nH]c(=O)n(Cc3ccc(C(=O)NCc4ccc(F)cc4)cc3)c2n1 [Compound I-354, N-(4-fluorobenzyl)-4-((2-(2-isopropylphenyl)-8-oxo-7,8-dihydro-9H-purin-9-yl)methyl)benzamide], which IC50 is on record?
The IC50 was 50 to 200 nM.

For CC(C)c1ccccc1-c1ncc2[nH]c(=O)n(Cc3ccc(C(=O)N(C)C)cc3)c2n1 [Compound I-355, 4-((2-(2-isopropylphenyl)-8-oxo-7,8-dihydro-9H-purin-9-yl)methyl)-N,N-dimethylbenzamide], which IC50 is on record?
The IC50 was less than 50 nM.

Which IC50 does the source give for CC(C)NC(=O)c1ccc(Cn2c(=O)[nH]c3cnc(-c4ccccc4C(C)C)nc32)cc1 [Compound I-356, N-isopropyl-4-((2-(2-isopropylphenyl)-8-oxo-7,8-dihydro-9H-purin-9-yl)methyl)benzamide] here?
The IC50 was less than 50 nM.

For CC(C)CNC(=O)c1ccc(Cn2c(=O)[nH]c3cnc(-c4ccccc4C(C)C)nc32)cc1 [Compound I-357, N-isobutyl-4-((2-(2-isopropylphenyl)-8-oxo-7,8-dihydro-9H-purin-9-yl)methyl)benzamide], which IC50 is on record?
The IC50 was 50 to 200 nM.

With CC(C)c1ccccc1-c1ncc2[nH]c(=O)n(Cc3ccc(C(=O)NC4CCCC4)cc3)c2n1 [Compound I-358, N-cyclopentyl-4-((2-(2-isopropylphenyl)-8-oxo-7,8-dihydro-9H-purin-9-yl)methyl)benzamide] as the molecule, how does the IC50 read?
Its IC50 is 50 to 200 nM.
